Drawing on PubChem BioAssay AID1636 (PCMD, 2009), this text covers IC50 for 1 compound.

In the test the target is Procathepsin L (Homo sapiens) (UniProt P07711). The test is described as follows: CTSL enzyme inhibitors – biochemical, probe 2, dose response (AID 1636). Particulars: purified human cathepsin L enzyme inhibition.
Sequence of Procathepsin L (Homo sapiens) (P07711 114-288 limits assumed): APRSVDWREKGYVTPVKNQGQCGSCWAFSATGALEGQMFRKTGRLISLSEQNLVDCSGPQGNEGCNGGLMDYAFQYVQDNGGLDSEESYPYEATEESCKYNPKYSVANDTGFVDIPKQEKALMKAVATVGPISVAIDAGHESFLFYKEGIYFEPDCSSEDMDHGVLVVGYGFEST
Sequence of Procathepsin L (Homo sapiens) (P07711 292-333 limits assumed): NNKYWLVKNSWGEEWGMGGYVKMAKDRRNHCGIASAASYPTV

Take `CC(C)(C)OC(=O)N[C@@H](Cc1c[nH]c2ccccc12)C(=O)NNC(=O)OCC(=O)N1CCCc2ccccc21`: the IC50 (usually the concentration needed to halve the response being measured) was 7 nM.
